#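 Cells were grown in 96-well plates and exposed to each compound for 48 hours at five concentrations; endpoints were interpolated linearly between bracketing concentrations, or set to the highest concentration if not reached. Here, GI50 denotes the concentration required for 50% inhibition of growth. TGI marks complete inhibition of growth.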
# What was measured:
# Assay in all cases: growth of human tumour cells (NCI), 48 h
# HCC-2998 colon = test system: HCC-2998 colon
# HCT-15 colon = test system: HCT-15 colon
# KM12 colon = test system: KM12 colon
# M14 melanoma = test system: M14 melanoma
# MCF7 breast = test system: MCF7 breast
# NCI/ADR-RES ovarian = test system: NCI/ADR-RES ovarian
# SK-MEL-28 melanoma = test system: SK-MEL-28 melanoma
# SW-620 colon = test system: SW-620 colon
# UACC-62 melanoma = test system: UACC-62 melanoma
# HOP-92 NSCLC = test system: HOP-92 NSCLC
Compound,TGI (HCC-2998 colon) [µM],TGI (HCT-15 colon) [µM],TGI (KM12 colon) [µM],TGI (M14 melanoma) [µM],TGI (MCF7 breast) [µM],TGI (NCI/ADR-RES ovarian) [µM],TGI (SK-MEL-28 melanoma) [µM],TGI (SW-620 colon) [µM],TGI (UACC-62 melanoma) [µM],TGI (HOP-92 NSCLC) [µM],GI50 (HCC-2998 colon) [µM],GI50 (HCT-15 colon) [µM],GI50 (HOP-92 NSCLC) [µM],GI50 (KM12 colon) [µM],GI50 (M14 melanoma) [µM],GI50 (MCF7 breast) [µM],GI50 (NCI/ADR-RES ovarian) [µM],GI50 (SK-MEL-28 melanoma) [µM],GI50 (SW-620 colon) [µM],GI50 (UACC-62 melanoma) [µM]
CN(C)c1cc[n+](-c2nc(/N=C(\[O-])C(F)(F)F)nc3c2ncn3C2CC(O)C(CO)O2)cc1 (configuration not stated),> 100,> 100,> 100,> 100,> 100,> 100,> 100,> 100,> 100,,,,,,,,,,,
O=C(OCC(Cl)(Cl)Cl)O[C@@H]1CCCC1(c1ccccc1)c1ccccc1,> 100,> 100,> 100,> 100,> 100,> 100,> 100,> 100,> 100,,,,,,,,,,,
C[C@@H]1S[C@H](c2c(Cl)cccc2Cl)N2Cc3ccccc3N=C12,> 100,> 100,> 100,> 100,> 100,,> 100,> 100,> 100,> 100,,,,,,,,,,
CC1=NC(=Cc2ccc([N+](=O)[O-])cc2)C(=O)N1n1c(-c2ccccc2)nc2ccccc2c1=O,> 100,> 100,> 100,> 100,> 100,,> 100,> 100,> 100,,,,,,,,,,,
CC(=O)N(O)c1ccc(-c2nc3ccccc3s2)cc1,> 100,> 100,> 100,> 100,,> 100,> 100,> 100,> 100,> 100,,,,,,,,,,
O=c1cnn(CCOCP(=O)(O)O)c(=O)[nH]1,> 100,,> 100,> 100,> 100,> 100,> 100,> 100,,> 100,,,,,,,,,,
Cc1ccccc1NC(=O)Cc1csc2[n+]1C(=O)/C(=C/c1ccc([N+](=O)[O-])cc1)S2,> 100,> 100,> 100,> 100,> 100,> 100,> 100,> 100,,> 100,,,,,,,,,,
O=C(CCc1ccccc1)ON1C(=S)C(c2ccccc2)(c2ccccc2)N=C1Sc1ccccc1,> 100,> 100,> 100,> 100,> 100,> 100,,,> 100,> 100,,,,,,,,,,
Oc1[nH]c2ccccc2c1/C=c1/cc2c(c(-c3ccc(F)cc3)n1)=Nc1ccccc1-2,2.16,2.43,1.87,1.41,2.57,1.25,2.47,2.43,,0.981,0.726,0.735,0.162,0.363,0.315,0.817,0.267,0.777,0.438,
Cn1c(N/N=C/c2ccccc2)nc(-c2ccc([N+](=O)[O-])cc2)c(C#N)c1=O,,> 100,> 100,> 100,> 100,> 100,> 100,> 100,97.5,80.6,,,,,,,,,,
CCOC(=O)C1=C(C)N(c2ccc(OC)cc2)C2(O)C=CC(=O)C3=C(O)c4ccccc4C(=O)C312 (configuration not stated),,20.9,29.2,21.8,19.2,20.1,,29.8,26.4,9.75,,,,,,,,,,
O=C(NNc1nc(-c2ccccc2)cs1)C(F)(F)F,> 100,> 100,> 100,> 100,> 100,> 100,88.8,> 100,> 100,,,,,,,,,,,
Cc1c(/C=N/N(C)C)oc2c1cc(O)c1ncccc12,> 100,> 100,> 100,14.9,,,> 100,> 100,45.9,76.8,,,,,,,,,,
NC(Cc1ccc(S(=O)(=O)O)cc1)C(=O)NC(Cc1ccc(S(=O)(=O)O)cc1)C(=O)O (configuration not stated),> 100,> 100,> 100,> 100,> 100,> 100,> 100,> 100,> 100,,,,,,,,,,,
CC(=N\N)/C(C)=N/N=C(C)/C(C)=N/N=C(C)/C(C)=N/N,> 100,> 100,> 100,> 100,> 100,> 100,> 100,> 100,,> 100,,,,,,,,,,
CN1c2ccccc2N(C(=O)c2ccccc2)C(CC(=O)O)c2cccn21 (configuration not stated),> 100,> 100,> 100,> 100,,,> 100,> 100,> 100,> 100,,,,,,,,,,
C(=C\N1CCCCC1)/c1nnnn1-c1ccccc1,> 100,> 100,> 100,38.5,,64.5,> 100,> 100,54.5,> 100,,,,,,,,,,
CC(C)C1N(C)c2ccc(Cl)cc2[C@H]2c3ccccc3CCN12 (some centres not stated),,> 100,> 100,> 100,> 100,> 100,> 100,> 100,> 100,> 100,,,,,,,,,,
Cc1nc2ccccc2c(/C=C/c2ccc(Cl)cc2)c1C(=O)/C=C/c1ccc(Cl)cc1,3,3.13,,,,6.15,3.12,,3.27,,1.53,0.787,,,,,2.12,1.67,,1.59
Cc1nc2c(=S)n(C)ncc2[nH]1,> 100,> 100,> 100,> 100,> 100,> 100,> 100,> 100,> 100,,,,,,,,,,,
COc1cc(-c2ccccc2N)c2cccnc2c1OC,,16.1,24.3,19.3,18.3,35.9,32.8,17.4,24.2,22.3,,,,,,,,,,
CSc1c(C(=O)Nc2ccc(Cl)cc2)c(N)n(N)c(=O)c1C#N,> 100,> 100,> 100,> 100,> 100,> 100,> 100,> 100,> 100,,,,,,,,,,,
